Results on 1 compound are retold here after patent publication US20050106305A1, “Beverage compositions comprising monatin and methods of making same” (Cargill, Inc., priority 2003, published 2005).

The nature of data set [1]: Equisweet blends of monatin with carbohydrate sweeteners (parity to 10.0% sucrose). The format is in vivo. The settings on record: for Effective Relative Sweetness Intensity (x sucrose) of Monatin: blend with sucrose equisweet to 10.0% sucrose. As to the method:
Blends of monatin (as described in Example 14) with sucrose, HFCS (55% fructose), and glucose syrup (63 dextrose equivalents, DE) equisweet to 10.0% (w/v) sucrose were prepared. For each carbohydrate sweetener, the monatin:sweetener ratio was adjusted so that monatin delivered 25, 50, and 75% of the total sweetness. Sweetness parity to 10.0% (w/v) sucrose was determined using the sweetness estimation method described in Example 14. As in Example 14, all assessments were carried out in the pH 3.2 model soft drink system, using 6-8 panelists, each tasting in duplicate. Results are presented as Tables 7-9.

A short description of data set [2]: Stability when exposed to ultra violet (UV) light. It is filed as physicochemical. Particulars: phosphoric/citrate buffer at pH 3.0, ambient temperature; data not shown. The source says: UV instability can be accelerated by certain flavor systems. UV-absorbing packaging material, colorants and/or antioxidants can protect against UV light-induced flavor interactions in monatin-containing beverages.

Molecules are shown by their SMILES.

`NC(CC(O)(Cc1c[nH]c2ccccc12)C(=O)O)C(=O)O` (racemic) [Monatin, 2-hydroxy-2-(indol-3-ylmethyl)-4-aminoglutaric acid]: the “Effective Relative Sweetness Intensity (x sucrose) of Monatin” value in data set [1] (sweetness contribution of monatin 25%, sucrose 7.5%, monatin 12.3 ppm) is 2000 x sucrose; in data set [1] (sweetness contribution of monatin 50%, sucrose 5.0%, monatin 30.8 ppm), 1600 x sucrose; in data set [1] (sweetness contribution of monatin 75%, sucrose 2.5%, monatin 50.3 ppm), 1500 x sucrose. The “sweetness intensity when blended with carbohydrate sweeteners” value in data set [1] (blended with carbohydrate sweeteners) is given as 1500-2000 × sucrose. Further, in data set [2], the “stability when exposed to ultra violet (UV) light” value was “similarly stable or slightly more stable than aspartame”.
